Remaining activity data for 4 molecules are collected here from article PMC5564600 (Oncotarget, 2017).

Common to all, as to experiment: biochemical
Assay type in all cases: binding

The target in test [1] is T1, panel of 442 kinases (Homo sapiens, UniProt Q59H18).
T1 construct: purchased Ambit Biosciences (scanMAXX KINOMEscan)
T1 sequence (Q59H18 1-835): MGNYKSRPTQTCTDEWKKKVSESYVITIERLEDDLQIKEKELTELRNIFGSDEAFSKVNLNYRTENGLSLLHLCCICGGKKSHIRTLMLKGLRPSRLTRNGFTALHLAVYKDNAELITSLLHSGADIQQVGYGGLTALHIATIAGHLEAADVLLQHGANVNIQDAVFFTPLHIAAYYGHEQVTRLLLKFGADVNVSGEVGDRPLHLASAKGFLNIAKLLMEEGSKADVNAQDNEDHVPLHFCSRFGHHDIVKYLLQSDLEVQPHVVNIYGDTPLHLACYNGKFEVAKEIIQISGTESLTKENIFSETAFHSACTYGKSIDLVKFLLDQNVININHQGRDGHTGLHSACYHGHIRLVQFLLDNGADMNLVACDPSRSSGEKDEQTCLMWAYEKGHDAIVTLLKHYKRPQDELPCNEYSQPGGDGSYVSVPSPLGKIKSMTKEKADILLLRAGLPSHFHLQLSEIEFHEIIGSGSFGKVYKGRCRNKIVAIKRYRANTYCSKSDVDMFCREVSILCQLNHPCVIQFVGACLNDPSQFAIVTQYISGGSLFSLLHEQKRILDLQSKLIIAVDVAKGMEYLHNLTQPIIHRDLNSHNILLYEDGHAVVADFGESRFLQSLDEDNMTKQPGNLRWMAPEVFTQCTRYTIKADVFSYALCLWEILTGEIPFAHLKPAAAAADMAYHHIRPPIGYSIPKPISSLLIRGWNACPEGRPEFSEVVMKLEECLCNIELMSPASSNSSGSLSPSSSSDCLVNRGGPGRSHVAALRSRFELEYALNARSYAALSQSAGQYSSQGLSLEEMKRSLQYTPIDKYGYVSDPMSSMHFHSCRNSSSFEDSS
To be noted: kinase TNNI3K; for remaining activity at 1 µM: read-out: TNNI3K (% of control at 1 µM).

For test [2], the target named is T2, panel of 442 kinases (Homo sapiens, UniProt P16234).
T2 construct: purchased Ambit Biosciences (scanMAXX KINOMEscan)
The following applies: kinase PDGFRA; for remaining activity at 1 µM: read-out: % of control at 1 µM.

Test [3] has as its target T3, panel of 442 kinases (Homo sapiens, UniProt P54753).
T3 construct: purchased Ambit Biosciences (scanMAXX KINOMEscan)
T3 sequence (P54753 34-998): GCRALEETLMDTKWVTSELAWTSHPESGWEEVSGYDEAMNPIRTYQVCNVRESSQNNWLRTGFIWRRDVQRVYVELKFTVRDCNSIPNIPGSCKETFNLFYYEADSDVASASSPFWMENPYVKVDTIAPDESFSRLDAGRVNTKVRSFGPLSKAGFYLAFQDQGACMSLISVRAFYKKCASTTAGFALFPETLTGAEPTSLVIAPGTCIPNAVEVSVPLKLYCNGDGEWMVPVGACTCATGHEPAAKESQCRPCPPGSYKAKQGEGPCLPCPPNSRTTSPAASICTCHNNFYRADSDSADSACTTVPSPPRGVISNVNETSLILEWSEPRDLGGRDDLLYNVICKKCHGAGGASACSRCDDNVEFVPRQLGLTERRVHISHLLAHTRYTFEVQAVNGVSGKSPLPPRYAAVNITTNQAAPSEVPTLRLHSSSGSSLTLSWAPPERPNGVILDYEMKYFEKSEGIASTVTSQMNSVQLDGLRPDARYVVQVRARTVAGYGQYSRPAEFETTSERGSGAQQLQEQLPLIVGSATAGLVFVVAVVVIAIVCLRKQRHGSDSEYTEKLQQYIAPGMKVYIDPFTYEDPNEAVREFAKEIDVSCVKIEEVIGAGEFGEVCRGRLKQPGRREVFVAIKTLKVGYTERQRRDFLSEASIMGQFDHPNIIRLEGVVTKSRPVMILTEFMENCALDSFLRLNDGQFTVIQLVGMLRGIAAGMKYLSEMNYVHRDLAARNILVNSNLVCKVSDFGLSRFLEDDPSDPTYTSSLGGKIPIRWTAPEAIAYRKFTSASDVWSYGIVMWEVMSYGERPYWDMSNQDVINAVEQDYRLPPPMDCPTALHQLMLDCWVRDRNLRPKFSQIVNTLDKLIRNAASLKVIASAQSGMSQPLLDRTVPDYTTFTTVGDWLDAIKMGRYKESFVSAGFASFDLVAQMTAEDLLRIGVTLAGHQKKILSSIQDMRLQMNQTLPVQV
The following applies: EPHB3; for remaining activity at 1 µM: read-out: % of control at 1 µM.

Test [4] addresses T4, panel of 442 kinases (Homo sapiens, UniProt P52564).
T4 construct: purchased Ambit Biosciences (scanMAXX KINOMEscan)
T4 sequence (P52564 1-334): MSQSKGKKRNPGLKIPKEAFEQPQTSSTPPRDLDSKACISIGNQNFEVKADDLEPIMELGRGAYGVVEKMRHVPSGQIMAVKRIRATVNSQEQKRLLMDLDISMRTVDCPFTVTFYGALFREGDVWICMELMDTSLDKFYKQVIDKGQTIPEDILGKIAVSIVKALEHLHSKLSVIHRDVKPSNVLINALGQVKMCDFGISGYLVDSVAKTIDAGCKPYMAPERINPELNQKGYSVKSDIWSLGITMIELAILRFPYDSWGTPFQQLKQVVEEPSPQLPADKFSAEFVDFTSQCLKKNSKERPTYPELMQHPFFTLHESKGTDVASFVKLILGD
To be noted: kinase MEK6; for remaining activity at 1 µM: read-out: % of control at 1 µM.

For test [5], the target named is T5, panel of 442 kinases (Homo sapiens, UniProt P49674).
T5 construct: purchased Ambit Biosciences (scanMAXX KINOMEscan)
The following applies: CSNK1E; for remaining activity at 1 µM: read-out: % of control at 1 µM.

Where [6] appears, read: 10 µM, read-out: % of control at 10 µM.

T2 sequence (P16234 24-1089): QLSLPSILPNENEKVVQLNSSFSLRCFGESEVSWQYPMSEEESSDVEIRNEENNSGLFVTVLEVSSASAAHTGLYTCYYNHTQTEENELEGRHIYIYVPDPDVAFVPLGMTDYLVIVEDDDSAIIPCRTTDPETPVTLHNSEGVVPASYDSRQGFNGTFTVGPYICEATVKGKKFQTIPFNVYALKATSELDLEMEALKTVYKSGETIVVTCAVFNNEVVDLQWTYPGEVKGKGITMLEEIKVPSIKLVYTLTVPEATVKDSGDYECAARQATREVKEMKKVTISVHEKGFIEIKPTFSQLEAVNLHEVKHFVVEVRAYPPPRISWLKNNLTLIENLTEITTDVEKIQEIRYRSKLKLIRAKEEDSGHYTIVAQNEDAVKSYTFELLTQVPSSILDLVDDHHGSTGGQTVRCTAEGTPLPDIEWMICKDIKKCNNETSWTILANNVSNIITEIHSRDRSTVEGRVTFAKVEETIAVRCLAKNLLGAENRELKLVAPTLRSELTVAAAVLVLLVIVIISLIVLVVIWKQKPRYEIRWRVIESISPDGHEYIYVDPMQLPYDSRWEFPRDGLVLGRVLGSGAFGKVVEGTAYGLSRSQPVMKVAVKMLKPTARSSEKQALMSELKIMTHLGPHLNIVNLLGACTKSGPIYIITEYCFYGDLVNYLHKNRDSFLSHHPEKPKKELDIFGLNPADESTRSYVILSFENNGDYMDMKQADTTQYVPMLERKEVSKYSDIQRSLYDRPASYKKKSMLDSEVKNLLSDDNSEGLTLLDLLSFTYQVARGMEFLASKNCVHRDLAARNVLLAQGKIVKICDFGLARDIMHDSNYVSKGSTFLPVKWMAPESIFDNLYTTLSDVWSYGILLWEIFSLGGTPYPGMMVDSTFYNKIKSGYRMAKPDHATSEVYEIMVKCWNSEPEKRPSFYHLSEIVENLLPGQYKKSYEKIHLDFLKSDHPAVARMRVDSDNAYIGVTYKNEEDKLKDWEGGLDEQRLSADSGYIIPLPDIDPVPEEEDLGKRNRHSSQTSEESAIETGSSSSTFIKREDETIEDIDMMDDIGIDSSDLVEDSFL
T5 sequence (P49674 whole entry): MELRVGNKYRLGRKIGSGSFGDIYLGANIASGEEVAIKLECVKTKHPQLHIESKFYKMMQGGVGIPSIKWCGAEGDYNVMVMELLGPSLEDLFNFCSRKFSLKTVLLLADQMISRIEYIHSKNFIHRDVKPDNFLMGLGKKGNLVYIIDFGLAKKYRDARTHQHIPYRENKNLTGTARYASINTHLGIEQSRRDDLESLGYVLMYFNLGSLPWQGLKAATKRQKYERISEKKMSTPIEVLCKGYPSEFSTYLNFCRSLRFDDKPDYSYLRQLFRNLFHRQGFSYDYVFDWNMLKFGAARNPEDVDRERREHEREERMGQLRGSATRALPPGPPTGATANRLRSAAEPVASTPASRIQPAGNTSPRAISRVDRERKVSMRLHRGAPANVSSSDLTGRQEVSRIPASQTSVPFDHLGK

With `COc1ncc(-c2ccc3nccc(-c4ccnnc4)c3c2)cc1NS(=O)(=O)c1ccc(F)cc1F` [Omipalisib], the remaining activity at 1 µM is 100% on panel of 442 kinases [1]; 100% on panel of 442 kinases [2]; 100% on panel of 442 kinases [3]; 51% at panel of 442 kinases [4]; 100% at panel of 442 kinases [5].

Take `Cn1c(=O)n(-c2ccc(C(C)(C)C#N)cc2)c2c3cc(-c4cnc5ccccc5c4)ccc3ncc21` [Dactolisib, 2-methyl-2-[4-(3-methyl-2-oxo-8-quinolin-3-yl-2,3-dihydroimidazo[4,5-c]quinolin-1-yl)-phenyl] propionitrile]: the remaining activity at 1 µM at panel of 442 kinases [1] worked out at 76%; at panel of 442 kinases [2], 100%; on panel of 442 kinases [3] it was 70%; on panel of 442 kinases [4], 96%; on panel of 442 kinases [5] it was 54%.

Regarding `Nc1cc(C(F)(F)F)c(-c2cc(N3CCOCC3)nc(N3CCOCC3)n2)cn1` [Buparlisib], the remaining activity at 1 µM on panel of 442 kinases [1] came to 100%; on panel of 442 kinases [2], 100%; at panel of 442 kinases [3], 91%; on panel of 442 kinases [4] it was 90%; at panel of 442 kinases [5] it was 100%. Further, the remaining activity at 10 µM on panel of 442 kinases [1] (10 µM, read-out: TNNI3K (% of control at 10 µM)) is 100%; on panel of 442 kinases [2] (setting [6]), 100%; on panel of 442 kinases [3] (setting [6]), 100%; on panel of 442 kinases [4] (setting [6]), 85%; at panel of 442 kinases [5] (setting [6]) it was 72%.

For `FC(F)c1nc2ccccc2n1-c1nc(N2CCOCC2)nc(N2CCOCC2)n1` [ZSTK474, 2-(difluoromethyl)-1-[4,6-di(4-morpholinyl)-1,3,5-triazin-2-yl]-1H-benzimidazole], the remaining activity at 1 µM at panel of 442 kinases [1] came to 95%; at panel of 442 kinases [2], 85%; at panel of 442 kinases [3], 56%; on panel of 442 kinases [4] it was 97%; on panel of 442 kinases [5], 100%.
